In patent US11352604B2, “Method of making cardiomyocytes from human pluripotent cells” (Wisconsin Alumni Research Foundation, priority 2016, dated 2022):

How the values were obtained:
[1] = system: NF-κB activation; conditions: cited from earlier work
[2] = system: hPSC-derived cardiac progenitors and hPSC-CMs; test: RT-qPCR gene expression in progenitors or cardiomyocytes; format: cell-based, human
Description: Frozen cell pellets from progenitors or cardiomyocytes in the 19-9-11 iPS cell line were thawed and RNA isolated using RNeasy spin columns with on-column DNase treatment according to the manufacturer's instructions (Qiagen). 500 ng of isolated RNA was used as template for reverse transcription using Biorad iScript RT supermix according to the manufacturer's instructions. 2.5 ng of derived cDNA was then used as template in qPCR with Taqman® primers bearing FAM-MGB dyes for genes of interest in a 20 μL reaction with Taqman® universal PCR supermix and the manufacturer's recommended cycling conditions (Thermo Fisher Scientific).

[3] = system: H9-TnT-GFP hPSC-CMs; test: cTnT-GFP reporter imaging of hPSC-CMs after NFκB inhibition; format: cell-based, human; conditions: QNZ day 3-5 concurrent with pI:C
Description: Antibodies: NFKappaB (Abcam) and phosphorylated IKappaB (Abcam). Antibodies were used at a dilution of 1:1000. NF-κB inhibitor: 40 nM QNZ (Selleckchem).

[4] = molecular target: T1, HCN4 channel (Homo sapiens, UniProt Q9Y3Q4); test: Spontaneous beat rate of cardiomyocyte sheets before and after ivrabradine; format: cell-based
T1 construct: endogenous in cells; host or cells: replated progenitor-derived cardiomyocyte sheets, 19-9-11 iPS cell line
T1 sequence (Q9Y3Q4 1-1203): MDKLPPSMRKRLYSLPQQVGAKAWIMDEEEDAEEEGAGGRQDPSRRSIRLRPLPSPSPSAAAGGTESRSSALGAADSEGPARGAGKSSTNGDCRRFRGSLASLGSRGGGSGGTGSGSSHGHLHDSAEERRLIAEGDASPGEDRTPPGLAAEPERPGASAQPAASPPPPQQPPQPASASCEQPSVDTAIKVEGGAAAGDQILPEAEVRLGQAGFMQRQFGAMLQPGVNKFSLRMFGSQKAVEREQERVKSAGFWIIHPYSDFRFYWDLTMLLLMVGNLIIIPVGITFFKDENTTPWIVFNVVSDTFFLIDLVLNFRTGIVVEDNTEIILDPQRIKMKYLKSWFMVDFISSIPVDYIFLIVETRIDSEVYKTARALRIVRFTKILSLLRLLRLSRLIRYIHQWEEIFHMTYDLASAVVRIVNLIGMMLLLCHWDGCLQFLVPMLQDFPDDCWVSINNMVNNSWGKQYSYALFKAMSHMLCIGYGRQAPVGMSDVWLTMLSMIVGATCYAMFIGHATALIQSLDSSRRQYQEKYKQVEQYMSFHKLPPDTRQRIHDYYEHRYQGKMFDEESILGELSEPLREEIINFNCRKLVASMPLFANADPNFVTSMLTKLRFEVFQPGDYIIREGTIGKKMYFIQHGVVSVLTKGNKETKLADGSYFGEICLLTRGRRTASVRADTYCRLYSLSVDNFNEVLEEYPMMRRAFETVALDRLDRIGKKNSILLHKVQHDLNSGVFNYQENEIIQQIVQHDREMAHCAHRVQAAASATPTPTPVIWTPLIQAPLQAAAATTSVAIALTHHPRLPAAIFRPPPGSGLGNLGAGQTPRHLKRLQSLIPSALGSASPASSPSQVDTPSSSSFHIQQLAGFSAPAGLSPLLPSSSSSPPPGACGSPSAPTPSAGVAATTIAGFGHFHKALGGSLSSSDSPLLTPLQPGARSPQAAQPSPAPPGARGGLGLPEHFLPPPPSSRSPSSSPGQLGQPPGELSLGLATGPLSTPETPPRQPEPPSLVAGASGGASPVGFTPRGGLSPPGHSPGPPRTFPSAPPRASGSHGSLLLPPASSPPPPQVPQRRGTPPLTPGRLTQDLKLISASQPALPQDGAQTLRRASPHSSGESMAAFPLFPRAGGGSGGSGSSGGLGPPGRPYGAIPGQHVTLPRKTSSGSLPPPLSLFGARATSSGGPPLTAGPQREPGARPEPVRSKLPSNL
Description: (§1) For quantification of spatial regularity and graphical presentation of time averaged beating in microtissue from the H9-cTnT-GFP (FIGS. 9A, C) or 19-9-11 (FIG. 9B) cell lines, .avi video files of low-powered (2.5× magnification) fields were recorded at a resolution of 1268×720 and a frame rate of 20/second. These videos were exported into a series of sequential .tiff files using Adobe Premiere, and then analyzed in MATLAB using previously described coding algorithms (Huebsch et al., 2015). Calculations of beat rate (before and after ivrabradine, […] for 2 hours, Sigma) were performed manually in the 19-9-11 cell line and multifocal patterns in untreated progenitor-derived sheets were represented as the average rate of beating for all foci present in a field.

[5] = system: hPSC-CMs; test: Cardiomyocyte yield and purity in GiWi differentiation; format: cell-based, human; conditions: DAPT early (day 3-5 or 3-7) and extended (day 3-10 or 3-16)
Description: To differentiate cardiomyocytes from hPSCs, the small molecule temporal modulation of the Wnt pathway (GiWi) monolayer protocol was used essentially as previously described (Lian et al., 2012). Human embryonic or induced pluripotent stem cells were dissociated with Versene (Thermo Fisher Scientific) for 6 minutes at 37° C., pipetted up and down 40 times, counted with a hemocytometer, spun down at 100×g for 5 minutes, and resuspended and seeded for differentiation at 1.5 million cells per well in 6 well plates or 0.4 million per well in 12 well plates in mTeSR® on stem-cell verified Matrigel® (WiCell) containing 10 μM Y-27632 ROCK-inhibitor (Tocris). After four days in mTeSR® (WiCell), at which point cells grew to 100 percent confluence, medium was switched to RPMI supplemented with B27 supplement not containing insulin (Thermo Fisher Scientific) and containing 12 μM of the Wnt agonist CHIR99021 (Tocris) for exactly 24 hours. Media was then changed to RPMI supplemented with B27 not containing insulin for exactly 48 hours. Then medium was then switched at day 3 to RPMI supplemented with B27 not containing insulin and containing 5 μM IWP2 (Tocris). At day 5, media was switched to RPMI supplemented with B27 not containing insulin for two days. At day 7 and every three days afterward, medium was replaced with RPMI supplemented with B27 containing insulin (Thermo Fisher Scientific). […]

[6] = system: hPSC-CMs; test: Cardiomyocyte yield from dissociated and replated progenitors; format: cell-based, human; conditions: DAPT
Description: For dissociation of day 5 cells (for destructive analyses or live cell replating experiments), progenitors were dissociated with Versene (Thermo Fisher Scientific) for 10 minutes at 37° C., pipetted up and down 40 times, and then neutralized 1:1 v/v versene solution with “K20” medium (DMEM/F12 with 1×NEAA, 1× Glutamine, 0.1 mM (3-mercaptoethanol, and 20% Knockout Serum Replacer by volume, all Thermo Fisher Scientific). For destructive analyses, pellets were made by centrifugation at 1.1×1000 g for 5 minutes, aspiration of medium supernatant, snap-freezing in liquid nitrogen, and kept at −80° C. for until pellet lysis for DNA, protein, or RNA isolation.
For replating of progenitors and microtissue formation, after neutralization and cell counting, 0.8 million day-5 progenitors per well were spun down at 100×g as above and resuspended and plated in 1 mL K20 with 10 μM Y-27632 ROCK-inhibitor (Tocris) into Synthemax® II-SC coated 12 well plates (Corning). Media was then changed daily in 2 mL of “K2” (same formulation as K20 above, but with just 2% Knockout Serum Replacer), and changed daily. Differentiating hPSC-CMs from replated progenitors in this protocol beat by day 8 to 12.

[7] = system: cTnT isoforms; test: Top-down mass spectrometry of cTnT isoforms (adult to fetal AUC ratio); format: cell-based, human; conditions: DAPT day 3-16
Description: Freshly isolated CMs from the H9-cTnT-GFP (FIG. 1) or 19-9-11 (FIG. 2) hPSC cell lines were washed with Ca^2+-free DPBS and centrifuged at 1,100 g for 5 minutes (min) and the wash solvent was removed. The cells were first homogenized in 50 μl HEPES solution (25 mM HEPES, pH 7.4, 2.5 mM EDTA, 100 mM NaF, 1 mM DTT, 10 mM L-methionine, 1 mM PMSF, 1 mM Na3VO4, protease inhibitor (Abcam) and phosphatase inhibitors). The homogenates were centrifuged at 17,000 g for 20 min and the HEPES extract containing predominately cytosolic proteins was collected. The remaining pellets were homogenized in 40 μl trifluoroacetic acid (TFA) solution (1% TFA, 5 mM tris(2-carboxyethyl)phosphine, 5 mM L-methionine) and centrifuged at 17,000 g for 20 min. The TFA extract containing predominantly the sarcomeric proteins was collected. Bradford protein assays were performed to determine the protein concentration. The sarcomeric protein-enriched extracts were diluted to 100 ng/μl for Liquid chromatography (LC)-MS analysis.
500 ng of each sarcomeric protein-enriched extract was injected to a home-packed reverse phase chromatography (RPC) column (PLRP-S, 10 μm particle size, 1000 A pore size, 500 μm inner diameter, 25 cm long), and the proteins were separated with a gradient of 5-95% mobile phase B (0.1% formic acid in 50:50 acetonitrile:ethanol) (mobile phase A: 0.1% formic acid in H2O) at a constant flowrate of 12 μl/min. The eluting proteins were analyzed by a high-resolution quadrupole-time of flight (q-TOF) mass spectrometer (Impact II, Bruker Daltonics) via electrospray ionization. The mass spectra were collected at a scan rate of 0.5 Hz for all samples being analyzed. Analyses of top-down mass spectra were performed using the vender-specific software DataAnalysis 3.2 (Bruker Daltonics).
Quantification of the sarcomeric protein isoforms was performed as previously described. […] The area under curve (AUC) of the EIC of a specific protein isoform represents the abundance of the selected protein isoform. […] Relative quantification of protein isoform expression was measured by the ratio of the AUCs.

[8] = system: day 5 cardiac progenitor cells; test: Propidium iodide cell cycle flow cytometry; format: cell-based, human; conditions: DAPT with pI:C, day 5
Description: Propidium iodide staining was performed on ethanol-fixed cells of the 19-9-11 iPS cell line with a low flow rate and linear mode fluorescence according to a previously published protocol (Darzynkiewicz and Juan, 2001).

[9] = system: hPSC-CM sheets from replated progenitors; test: Video edge detection / beating analysis of cardiomyocyte sheets; format: cell-based, human; conditions: DAPT present day3-day20
Description: as §1

[10] = system: hPSC-CMs; test: Optical action potential measurement (RH237); format: cell-based, human; conditions: DAPT day 3-16
Description: After hPSC-CM dissociation, day 30 to 60 lactate-purified hPSC-CMs from the 19-9-11 cell line were plated as 80 μL drops on areas of cover glass previously coated in drops of Synthemax® working solution of 80 μL (Corning) in the K20/2 dissociation and replating technique described above. After at least two days in K2 medium, the fast-equilibrating voltage-sensitive dye RH237 at 1 μM was added and live cells imaged in the cover glass in a Leica confocal microscope. Video files of individual cells were taken and filtered with the 50th FIR filter at a cutoff frequency of 128 Hz. The resulting action potentials were analyzed for rise time and voltage velocity in MATLAB. Individual cells were considered as replicates for statistical purposes and came from 4 cell preparations.

Structure (SMILES): Nc1ccc2ncnc(NCCc3ccc(Oc4ccccc4)cc3)c2c1 [QNZ]
- inhibitory activity toward both NF-κB activation and TNF-α production [1]: potent inhibitory activity
- effect on pI:C-increased maturation gene expression ([2]; day 20 pPSC-CM, QNZ with pI:C): reversed
- effect on formation of TnT-GFP positive cardiomyocyte collections after pIC treatment [3]: blocked the generation of large collections of TnT-GFP positive cardiomyocytes

Structure (SMILES): COc1cc2c(cc1OC)CC(=O)N(CCCN(C)C[C@H]1Cc3cc(OC)c(OC)cc31)CC2 [ivrabradine]
- effect on spontaneous contractions ([4]; cardiomyocyte sheets from primed progenitors, 5 μm for 2 hours): blocked the spontaneous contractions
- effect on beat rate ([4]; cardiomyocyte sheets from untreated progenitors, 5 μM for 2 hours): little effect

Structure (SMILES): C[C@H](NC(=O)Cc1cc(F)cc(F)c1)C(=O)N[C@H](C(=O)OC(C)(C)C)c1ccccc1 [DAPT]
- effect on pI:C-increased hPSC-CM yield [5]: blocked pI:C's effect on hPSC-CM yield
- effect on pI:C-increased expression of cardiomyocyte maturation genes (αMHC, cTnI, cardiac actin, ATP5a, RYR2, SERCA) ([2]; DAPT day 3-5 or day 3-16): reversed the increased expression
- effect on pI:C downregulation of cardiac fibroblast genes ([2]; Notch inhibition (DAPT) with pI:C): accentuated
- effect on increased yield from replated primed progenitors [6]: blocked this increased yield
- effect on protein isoform change toward adult cTnT 6 and 11 caused by pI:C [7]: abrogated
- effect on increased cell cycle activity of primed progenitors [8]: blocked the increased cell cycle activity
- contraction pattern of hPSC-CM sheets from pI:C-primed progenitors [9]: multifocal and disorganized without forming waves of contraction
- effect on increase in optical upstroke velocity (decreased rise time) from primed progenitors [10]: blocked only with DAPT treatment from day 3-16
